Here are results for 44 compounds from ChEMBL document CHEMBL1155368, “Derivatives of aryl amines containing the cytotoxic 1,4-dioxo-2-butenyl pharmacophore” (Bioorg Med Chem Lett, 2010).

Structures are written as SMILES.

In one series the test system is L1210. Kind of series: Cytotoxicity against mouse L1210 cells. The format is functional, cell-based.
Series [1] is described as follows: Cytotoxicity against human Molt4/C8 cells. The format is functional, cell-based. Conditions: MOLT-4.
In series [2] the target is T1, Glycylpeptide N-tetradecanoyltransferase 1 (Homo sapiens, UniProt P30419).
T1 sequence (P30419 whole entry): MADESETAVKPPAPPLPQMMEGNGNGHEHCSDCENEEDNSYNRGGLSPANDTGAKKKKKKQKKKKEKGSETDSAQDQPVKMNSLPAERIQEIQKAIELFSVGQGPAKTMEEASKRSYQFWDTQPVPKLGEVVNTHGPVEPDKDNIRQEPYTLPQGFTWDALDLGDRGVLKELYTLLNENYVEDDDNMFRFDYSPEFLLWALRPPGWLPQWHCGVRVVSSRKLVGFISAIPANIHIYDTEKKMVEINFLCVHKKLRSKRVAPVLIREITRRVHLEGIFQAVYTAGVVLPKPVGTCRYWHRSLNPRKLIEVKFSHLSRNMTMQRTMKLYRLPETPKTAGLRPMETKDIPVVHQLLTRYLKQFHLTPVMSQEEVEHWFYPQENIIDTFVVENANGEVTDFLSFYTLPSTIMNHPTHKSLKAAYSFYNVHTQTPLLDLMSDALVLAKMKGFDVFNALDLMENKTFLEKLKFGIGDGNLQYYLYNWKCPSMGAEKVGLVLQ
Kind of series: Inhibition of human NMT expressed in Escherichia coli DH5alpha cells.

The test system of a further series is CCRF-CEM. Description: Cytotoxicity against human CEM cells. It counts as functional, cell-based.
For series [3], the system named is Mus musculus. Kind of series: Toxicity in mouse assessed as mortality at 30 to 300 mg/kg, ip after 0.5 to 4 hrs. Conditions: in vivo. It counts as organism-based. Set-up: dose 30-300 mg/kg, route intraperitoneal.
Series [4] concerns Mus musculus. Kind of series: Toxicity in mouse assessed as mortality at 100 mg/kg, ip after 4 hrs. Conditions: in vivo. It counts as organism-based. Set-up: dose 100 mg/kg, route intraperitoneal.
In series [5] the test system is Mus musculus. Description: Toxicity in mouse assessed as mortality at 300 mg/kg, ip after 4 hrs. It counts as organism-based. Set-up: dose 300 mg/kg, route intraperitoneal. The conditions noted are these: in vivo.
Series [6] has as its system Mus musculus. Description: Toxicity in mouse assessed as mortality at 30 mg/kg, ip after 4 hrs. The format is organism-based. Set-up: dose 30 mg/kg, route intraperitoneal. The conditions noted are these: in vivo.

One may read the IC50 as the concentration that gives 50% inhibition. `COC(=O)/C=C\C(=O)Nc1ccc(C)cc1`: the IC50 was 47 µM in the series on L1210, 37 µM in series [1], more than 10000 µM in series [2] and 36 µM in the series on CCRF-CEM.
For `COC(=O)/C=C\C(=O)Nc1ccc(C)c(C)c1`, the IC50 stood at 202 µM with L1210, 188 µM in series [1] and 228 µM in the series on CCRF-CEM.
In the case of `O=C(O)/C=C/C(=O)Nc1ccc(Cl)c(Cl)c1`, in the series on Mus musculus [3], the Activity result was “Non-toxic”. The IC50 with L1210 worked out at 314 µM; in series [1], 214 µM; in the series with CCRF-CEM, 209 µM.
In the case of `O=C1C=C/C(=N\c2ccc(Cl)cc2)O1`, the results for the IC50 (with L1210; in series [1]; with CCRF-CEM) were 59 µM, 30 µM and 182 µM, respectively.
The matching figures for `COC(=O)CCC(=O)Nc1ccccc1`: more than 500 µM, more than 500 µM and more than 500 µM.
On to `O=C1CCC(=O)N1c1ccc([N+](=O)[O-])cc1`, for which the Activity result in the series with Mus musculus [4] and in the series on Mus musculus [5] was “Toxic” throughout. Besides, the IC50 in the series with L1210 was found to be 41 µM; in series [1], 210 µM; in the series on CCRF-CEM, 202 µM.
As to `COC(=O)/C=C\C(=O)Nc1ccccc1`, the IC50 (with L1210; in series [1]; in the series on CCRF-CEM) was more than 500 µM each time.
As to `COC(=O)/C=C\C(=O)Nc1ccc(Cl)c(Cl)c1`, the IC50 with L1210 turned out to be 39 µM; in series [1], 41 µM; in the series on CCRF-CEM it was 55 µM. The Activity entry in the series with Mus musculus [5] is recorded as “Toxic”.
On to `O=C1CCC(=O)N1c1ccc(Cl)cc1`, for which the Activity entry in the series on Mus musculus [4] and in the series on Mus musculus [5] was “Toxic” in each case. For the same compound, the IC50 in the series with L1210 is 194 µM; in series [1] it was 218 µM; in the series with CCRF-CEM, 231 µM.
As to `Cc1ccc(N2C(=O)CCC2=O)cc1`, the Activity result in the series on Mus musculus [4] and in the series with Mus musculus [5] was “Toxic” each time. Further, the results for the IC50 (in the series with L1210; in series [1]; in the series with CCRF-CEM) were 7.8 µM, 43 µM and 42 µM, respectively.
`COc1ccc(N2C(=O)CCC2=O)cc1`: the Activity entry in the series with Mus musculus [4] and with Mus musculus [5] was “Toxic” throughout. The results for the IC50 (with L1210; in series [1]; in the series with CCRF-CEM) were 225 µM, 281 µM and 295 µM, respectively.
As to `CC(=O)c1ccc(N2C(=O)CCC2=O)cc1`, the Activity result with Mus musculus [4] and in the series on Mus musculus [5] was “Toxic” in each case. Further, the values for the IC50 (with L1210; in series [1]; in the series with CCRF-CEM) were 31 µM, 93 µM and 215 µM, respectively.
For the compound `O=C1C=C/C(=N\c2ccccc2)O1`, the IC50 (with L1210; in series [1]; in the series on CCRF-CEM) was more than 500 µM each time.
Take `O=C1C=C/C(=N\c2ccc(Cl)c(Cl)c2)O1`: the IC50 in the series with L1210 was found to be 47 µM; in series [1] it was 58 µM; in the series with CCRF-CEM, 54 µM. The Activity result with Mus musculus [5] is “Toxic”.
In the case of `Cc1ccc(/N=C2\C=CC(=O)O2)cc1`, the IC50 is 271 µM with L1210, 301 µM in series [1] and 357 µM in the series on CCRF-CEM.
The matching figures for `Cc1ccc(/N=C2\C=CC(=O)O2)cc1C`: 69 µM, 161 µM and 195 µM.
The matching figures for `COc1ccc(/N=C2\C=CC(=O)O2)cc1`: more than 500 µM, more than 500 µM and more than 500 µM.
Consider `O=C1C=C/C(=N\c2ccc([N+](=O)[O-])cc2)O1`, for which the 50% inhibitory concentration (IC50) with L1210 was 69 µM; in series [1] it was 60 µM; in the series with CCRF-CEM it was 161 µM. Moreover, the Activity result with Mus musculus [5] is on record as “Toxic”.
As to `CC(=O)c1ccc(/N=C2\C=CC(=O)O2)cc1`, the 50% inhibitory concentration (IC50) with L1210 stood at 219 µM; in series [1] it was 214 µM; in the series with CCRF-CEM it was 205 µM.
Consider `COC(=O)/C=C\C(=O)Nc1ccc(Cl)cc1`, for which the Activity entry in the series with Mus musculus [3] is “Non-toxic”. The IC50 with L1210 was found to be 78 µM; in series [1] it was 41 µM; with CCRF-CEM, 95 µM.
On the same counts, the results for `Cc1ccc(NC(=O)/C=C/C(=O)O)cc1` are “Non-toxic”, more than 500 µM, more than 500 µM and more than 500 µM.
As to `Cc1ccc(NC(=O)/C=C/C(=O)O)cc1C`, the Activity result in the series with Mus musculus [3] was “Non-toxic”. The IC50 with L1210 was 466 µM; in series [1], more than 500 µM; in the series on CCRF-CEM, more than 500 µM.
As to `COc1ccc(NC(=O)/C=C/C(=O)O)cc1`, in the series with Mus musculus [3], the Activity result is “Non-toxic”. The IC50 (in the series with L1210; in series [1]; in the series on CCRF-CEM) was more than 500 µM in each case.
On to `O=C(O)/C=C/C(=O)Nc1ccc([N+](=O)[O-])cc1`, for which, in the series on Mus musculus [3], the Activity result is recorded as “Non-toxic”. In addition, the IC50 is more than 500 µM in the series on L1210, 236 µM in series [1] and more than 500 µM in the series on CCRF-CEM.
On to `CC(=O)c1ccc(NC(=O)/C=C/C(=O)O)cc1`, for which the Activity result in the series with Mus musculus [3] is recorded as “Non-toxic”. Also, the IC50 (in the series on L1210; in series [1]; in the series on CCRF-CEM) was more than 500 µM each time.
On to `Cc1cccc(C)c1NC(=O)/C=C/C(=O)O`, for which, in the series with Mus musculus [3], the Activity result is listed as “Non-toxic”. The IC50 (in the series on L1210; in series [1]; with CCRF-CEM) was more than 500 µM each time.
On to `COC(=O)/C=C/C(=O)Nc1ccccc1`, for which, in the series with Mus musculus [3], the Activity result is “Non-toxic”. In addition, the half-maximal inhibitory concentration (IC50) in the series on L1210 stood at 40 µM; in series [1], 42 µM; with CCRF-CEM it was 40 µM.
With `COC(=O)/C=C/C(=O)Nc1c(C)cccc1C`, in the series with Mus musculus [3], the Activity result is “Non-toxic”. The IC50 in the series with L1210 amounted to 34 µM; in series [1] it was 26 µM; with CCRF-CEM it was 31 µM.
For the compound `COC(=O)/C=C/C(=O)Nc1ccc(Cl)cc1`, in the series on Mus musculus [3], the Activity result is “Non-toxic”. The IC50 stood at 7.5 µM with L1210, 8.2 µM in series [1] and 9.6 µM in the series on CCRF-CEM.
The matching figures for `COC(=O)/C=C/C(=O)Nc1ccc(Cl)c(Cl)c1`: “Non-toxic”, 0.37 µM, 2.4 µM and 4.8 µM.
Consider `COC(=O)/C=C/C(=O)Nc1ccc(C)cc1`, for which the Activity entry with Mus musculus [4] is recorded as “Toxic”. The IC50 in the series with L1210 was 9.3 µM; in series [1], 21 µM; with CCRF-CEM it was 15 µM.
As for `COC(=O)/C=C/C(=O)Nc1ccc(C)c(C)c1`, in the series on Mus musculus [3], the Activity entry was “Non-toxic”. Also, the IC50 in the series with L1210 was found to be 2.2 µM; in series [1], 4.6 µM; in series [2], 2330 µM; in the series on CCRF-CEM it was 7.6 µM.
`COC(=O)/C=C/C(=O)Nc1ccc(OC)cc1`: the Activity result in the series with Mus musculus [3] is reported as “Non-toxic”. For the same compound, the IC50 with L1210 stood at 18 µM; in series [1], 10 µM; with CCRF-CEM, 37 µM.
On the same counts, the results for `COC(=O)/C=C/C(=O)Nc1ccc([N+](=O)[O-])cc1` are “Non-toxic”, 6.2 µM, 7.3 µM and 11 µM.
On to `COC(=O)/C=C/C(=O)Nc1ccc(C(C)=O)cc1`, for which the figures for the IC50 (in the series on L1210; in series [1]; in the series on CCRF-CEM) were 17 µM, 35 µM and 32 µM, respectively.
In the case of `O=C(O)/C=C/C(=O)Nc1ccc(Cl)cc1`, the Activity result in the series with Mus musculus [3] was “Non-toxic”. Besides, the IC50 (in the series with L1210; in series [1]; in the series on CCRF-CEM) was more than 500 µM throughout.
In the case of `COC(=O)/C=C\C(=O)Nc1ccc([N+](=O)[O-])cc1`, the figures for the IC50 (in the series with L1210; in series [1]; in the series with CCRF-CEM) were 208 µM, 210 µM and 190 µM, respectively. For the same compound, the Activity result in the series on Mus musculus [5] is given as “Toxic”.
On the same counts, the results for `COC(=O)/C=C\C(=O)Nc1ccc(C(C)=O)cc1` are 184 µM, 50 µM, 44 µM and “Toxic”.
Turning to `COC(=O)/C=C\C(=O)Nc1c(C)cccc1C`, the values for the IC50 (in the series with L1210; in series [1]; in the series on CCRF-CEM) were 184 µM, 192 µM and 183 µM, respectively.
As to `O=C(O)CCC(=O)Nc1ccccc1`, the IC50 (in the series with L1210; in series [1]; in the series with CCRF-CEM) was more than 500 µM throughout.
Regarding `O=C(O)/C=C/C(=O)Nc1ccccc1`, the Activity entry with Mus musculus [3] was “Non-toxic”. Further, the IC50 (in the series with L1210; in series [1]; with CCRF-CEM) was more than 500 µM throughout.
As to `O=C1CCC(=O)N1c1ccccc1`, the Activity result in the series on Mus musculus [3] was “Non-toxic”. For the same compound, the half-maximal inhibitory concentration (IC50) (in the series with L1210; in series [1]; in the series with CCRF-CEM) was more than 500 µM each time.
As to `O=C1C=CC(=O)N1c1ccccc1`, the Activity result in the series on Mus musculus [4], in the series with Mus musculus [6] and in the series on Mus musculus [5] was “Toxic” each time. For the same compound, the IC50 with L1210 was determined as 164 µM; in series [1], 207 µM; with CCRF-CEM, 217 µM.
With `N[C@@H](Cc1ccc(N(CCCl)CCCl)cc1)C(=O)O` [MELPHALAN], the IC50 stood at 2.1 µM with L1210, 3.2 µM in series [1] and 2.5 µM in the series with CCRF-CEM.
